Test results from PubChem BioAssay AID330 (DTP/NCI, 2004).
“And” between values parts separate entries of the source, which are not always exact repeats. Identical values can stand only once. Inconclusive results and toxic doses are left out.

System: P388 leukemia ip, CD2F1 mice, survival T/C
Experiment: NCI In Vivo Anticancer Drug Screen. Data for tumor model P388 Leukemia (intraperitoneal) in CD2F1 (CDF1) mice
Details: endpoint: median survival time, higher = longer survival
Method in brief: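 Mice carrying the transplanted tumor received test compound or vehicle. Survival was recorded in each group, and the value is the treated-group measurement divided by that of the vehicle-treated control group.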

[1] = dose: 60.0 mg/kg/injection, schedule: Q01DX005 (ip), vehicle: saline with Tween-80
[2] = dose: 120.0 mg/kg/injection, schedule: Q01DX005 (ip), vehicle: saline with Tween-80
[3] = dose: 240.0 mg/kg/injection, schedule: Q01DX005 (ip), vehicle: saline with Tween-80
[4] = dose: 100.0 mg/kg/injection, schedule: Q04DX003 (ip), vehicle: saline
[5] = dose: 200.0 mg/kg/injection, schedule: Q04DX003 (ip), vehicle: saline
[6] = dose: 400.0 mg/kg/injection, schedule: Q04DX003 (ip), vehicle: saline

In the case of `Nc1nnc(-c2ccc(Br)cc2)o1`, the T/C [1] is reported as 106 % of control, the T/C [2] is reported as 109 % of control and the T/C [3] is reported as 114 % of control.

`COC1=C(C)C(=O)C2=C(C1=O)C1C3CC4=C(C(=O)C(OC)=C(C)C4=O)C(CNC(=O)C(C)=O)N3C(C#N)C(C2)N1C` (configuration not stated) was tested, and the T/C (dose: 0.06 mg/kg/injection, schedule: Q01DX009 (ip), vehicle: Klucel (hydroxypropylcellulose) (HPC)) was 122 % of control, the T/C (dose: 0.31 mg/kg/injection, schedule: Q01DX009 (sc), vehicle: Klucel (hydroxypropylcellulose) (HPC)) was 107 % of control and the T/C (dose: 0.62 mg/kg/injection, schedule: Q01DX009 (ip), vehicle: Klucel (hydroxypropylcellulose) (HPC)) was 160 % of control. The T/C (dose: 0.62 mg/kg/injection, schedule: Q01DX009 (sc), vehicle: Klucel (hydroxypropylcellulose) (HPC)) was 115 % of control, the T/C (dose: 1.0 mg/kg/injection, schedule: Q01DX009 (ip), vehicle: saline) was 156 % of control and the T/C (dose: 1.25 mg/kg/injection, schedule: Q01DX009 (ip), vehicle: Klucel (hydroxypropylcellulose) (HPC)) was 107 % of control. For the same molecule, the T/C (dose: 1.25 mg/kg/injection, schedule: Q01DX009 (sc), vehicle: Klucel (hydroxypropylcellulose) (HPC)) was 118 % of control and the T/C (dose: 2.0 mg/kg/injection, schedule: Q01DX009 (ip), vehicle: saline) was 87 % of control.

In the case of `CS(C)=O.CS(C)=O.CS(C)=O.CS(C)=O.[Cl][Ru][Cl]`, the T/C (dose: 60.0 mg/kg/injection, schedule: Q01DX005 (ip), vehicle: Klucel (hydroxypropylcellulose) (HPC)) is reported as 105 % of control, the T/C [4] is reported as 97 % of control and the T/C (dose: 120.0 mg/kg/injection, schedule: Q01DX005 (ip), vehicle: Klucel (hydroxypropylcellulose) (HPC)) is reported as 101 % of control. The T/C [5] was 99 % of control, the T/C (dose: 240.0 mg/kg/injection, schedule: Q01DX005 (ip), vehicle: Klucel (hydroxypropylcellulose) (HPC)) was 107 % of control and the T/C [6] was 92 % of control.

In the case of `Ic1ccc2c(c1)N(c1ccccc1)c1cc(N=c3ccc4nc5ccc(I)cc5n(-c5ccccc5)c-4c3)ccc1N2`, the T/C (dose: 100.0 mg/kg/injection, schedule: Q01DX009 (ip), vehicle: Klucel (hydroxypropylcellulose) (HPC)) is reported as 96 % of control and the T/C (dose: 200.0 mg/kg/injection, schedule: Q01DX009 (ip), vehicle: Klucel (hydroxypropylcellulose) (HPC)) is reported as 89 % of control.

For `O=C(Nc1ccc(Br)cn1)c1sc2ccccc2c1Cl`, the T/C (dose: 6.25 mg/kg/injection, schedule: Q01DX009 (ip), vehicle: saline with Tween-80) was 99 % of control, the T/C (dose: 12.5 mg/kg/injection, schedule: Q01DX009 (ip), vehicle: saline with Tween-80) was 98 % of control and the T/C (dose: 25.0 mg/kg/injection, schedule: Q01DX009 (ip), vehicle: saline with Tween-80) was 99 % of control. For the same molecule, the T/C (dose: 100.0 mg/kg/injection, schedule: Q01DX009 (ip), vehicle: saline with Tween-80) was 92 % of control and the T/C (dose: 200.0 mg/kg/injection, schedule: Q01DX009 (ip), vehicle: saline with Tween-80) was 87 % of control.

With `Cc1ccc2cccc(OC(=O)Nc3cc(Cl)c(Cl)cc3Cl)c2n1` the T/C (dose: 15.0 mg/kg/injection, schedule: Q01DX005 (ip), vehicle: saline with Tween-80) was 100 % of control, the T/C (dose: 30.0 mg/kg/injection, schedule: Q01DX005 (ip), vehicle: saline with Tween-80) was 93 % of control and the T/C [1] was 93 % of control. For the same molecule, the T/C [3] was 94 % of control.

With `O=C1C2CC3OC3CC2C(=O)N1CN1C(=O)C2CC3OC3CC2C1=O` (configuration not stated) the T/C (dose: 50.0 mg/kg/injection, schedule: Q01DX005 (ip), vehicle: Klucel (hydroxypropylcellulose) (HPC)) was 106 % of control, the T/C (dose: 100.0 mg/kg/injection, schedule: Q01DX005 (ip), vehicle: Klucel (hydroxypropylcellulose) (HPC)) was 91 % of control and the T/C (dose: 200.0 mg/kg/injection, schedule: Q01DX005 (ip), vehicle: Klucel (hydroxypropylcellulose) (HPC)) was 89 % of control.

In the case of `O=S(=O)(O)c1ccc(CCCCCCl)cc1`, the T/C [4] is reported as 100 % of control, the T/C [5] is reported as 95 % of control and the T/C [6] is reported as 86 % of control.

For `COC(=O)CS(=O)(=O)CCCS(=O)(=O)CC(=O)OC`, the T/C (dose: 50.0 mg/kg/injection, schedule: Q01DX009 (ip), vehicle: saline) was 105 % of control, the T/C (dose: 100.0 mg/kg/injection, schedule: Q01DX009 (ip), vehicle: saline) was 99 % of control and the T/C (dose: 200.0 mg/kg/injection, schedule: Q01DX009 (ip), vehicle: saline) was 103 % of control.

`O=C1CSC(c2c(Cl)cccc2Cl)N1c1nncs1` (configuration not stated) was tested, and the T/C [1] was 111 % of control, the T/C [2] was 102 % of control and the T/C [3] was 98 % of control.

`CS(=O)(=O)O/C=C1/CCOC1=O` was tested, and the T/C (dose: 3.13 mg/kg/injection, schedule: Q01DX009 (ip), vehicle: water) was 107 % of control, the T/C (dose: 6.25 mg/kg/injection, schedule: Q01DX009 (ip), vehicle: water) was 104 % of control and the T/C (dose: 12.5 mg/kg/injection, schedule: Q01DX009 (ip), vehicle: water) was 102 % of control and 108 % of control. For the same molecule, the T/C (dose: 25.0 mg/kg/injection, schedule: Q01DX009 (ip), vehicle: water) was 120 % of control.

`O=C1C(c2ccccc2)=C(c2ccccc2)/C1=C/c1ccc(F)cc1` was tested, and the T/C (dose: 50.0 mg/kg/injection, schedule: Q01DX001 (ip), vehicle: Klucel (hydroxypropylcellulose) (HPC)) was 112 % of control, the T/C (dose: 100.0 mg/kg/injection, schedule: Q01DX001 (ip), vehicle: Klucel (hydroxypropylcellulose) (HPC)) was 106 % of control and the T/C (dose: 200.0 mg/kg/injection, schedule: Q01DX001 (ip), vehicle: Klucel (hydroxypropylcellulose) (HPC)) was 118 % of control.
